Values joined by “and” are separate entries in the source; they are usually repeats but may differ in a detail not shown here. Equal values may be shown once. Numbers after ± are expanded uncertainties.
Assay: wn = mass fraction of the nth substance listed
Details: 101 kPa, Liquid, Alternating current cell with electrodes, w1 = 0.01

CCCCCCCCCCCC[N+](CC)(CC)CCCCCCCCCCCC.[Br-] [didodecyldiethylammonium bromide] + O
Details | electrical conductivity
315.45 K | 0.0223 ± 0.0089 S/m
315.55 K | 0.0224 ± 0.009 S/m
315.65 K | 0.0224 ± 0.009 S/m
315.75 K | 0.0226 ± 0.009 S/m
315.85 K | 0.0227 ± 0.0091 S/m
315.95 K | 0.0228 ± 0.0091 S/m
316.05 K | 0.0228 ± 0.0091 S/m
316.15 K | 0.023 ± 0.0092 S/m
316.25 K | 0.023 ± 0.0092 S/m
316.35 K | 0.0231 ± 0.0092 S/m
316.45 K | 0.0233 ± 0.0093 S/m
316.55 K | 0.0234 ± 0.0094 S/m
316.65 K | 0.0236 ± 0.0094 S/m
316.85 K | 0.0238 ± 0.0095 S/m
317.05 K | 0.0239 ± 0.0096 S/m
317.15 K | 0.0242 ± 0.0097 S/m
317.25 K | 0.0242 ± 0.0097 S/m
317.35 K | 0.0244 ± 0.0098 S/m
317.45 K | 0.0245 ± 0.0098 S/m
317.55 K | 0.0246 ± 0.0098 S/m
317.65 K | 0.0247 ± 0.0099 S/m
317.75 K | 0.0249 ± 0.01 S/m
317.85 K | 0.0249 ± 0.01 S/m
317.95 K | 0.0252 ± 0.01 S/m
318.05 K | 0.0253 ± 0.01 S/m
318.15 K | 0.0253 ± 0.01 S/m
318.25 K | 0.0255 ± 0.01 S/m
318.35 K | 0.0257 ± 0.01 S/m
318.45 K | 0.0259 ± 0.01 S/m
318.55 K | 0.0259 ± 0.01 S/m
318.65 K | 0.026 ± 0.01 S/m
318.75 K | 0.0262 ± 0.01 S/m
318.85 K | 0.0263 ± 0.011 S/m
318.95 K | 0.0264 ± 0.011 S/m
319.05 K | 0.0265 ± 0.011 S/m
319.15 K | 0.0266 ± 0.011 S/m
319.25 K | 0.0268 ± 0.011 S/m
319.35 K | 0.027 ± 0.011 S/m
319.45 K | 0.0271 ± 0.011 S/m
319.55 K | 0.0272 ± 0.011 S/m
319.65 K | 0.0273 ± 0.011 S/m
319.75 K | 0.0275 ± 0.011 S/m
319.85 K | 0.0276 ± 0.011 S/m
319.95 K | 0.0277 ± 0.011 S/m
320.05 K | 0.0278 ± 0.011 S/m
320.15 K | 0.028 ± 0.011 S/m
320.25 K | 0.0282 ± 0.011 S/m
320.35 K | 0.0283 ± 0.011 S/m
320.45 K | 0.0283 ± 0.011 S/m
320.55 K | 0.0286 ± 0.011 S/m
320.65 K | 0.0288 ± 0.012 S/m
320.75 K | 0.0289 ± 0.012 S/m
320.85 K | 0.029 ± 0.012 S/m
320.95 K | 0.0292 ± 0.012 S/m
321.05 K | 0.0293 ± 0.012 S/m
321.15 K | 0.0294 ± 0.012 S/m
321.25 K | 0.0296 ± 0.012 S/m
321.35 K | 0.0298 ± 0.012 S/m
321.45 K | 0.03 ± 0.012 S/m
321.55 K | 0.0301 ± 0.012 S/m
321.65 K | 0.0303 ± 0.012 S/m
321.75 K | 0.0304 ± 0.012 S/m
321.85 K | 0.0306 ± 0.012 S/m
321.95 K | 0.0308 ± 0.012 S/m
322.15 K | 0.031 ± 0.012 S/m
322.25 K | 0.0312 ± 0.012 S/m
322.35 K | 0.0314 ± 0.013 S/m
322.45 K | 0.0315 ± 0.013 S/m
322.55 K | 0.0316 ± 0.013 S/m
322.65 K | 0.0317 ± 0.013 S/m
322.75 K | 0.0318 ± 0.013 S/m
322.85 K | 0.0319 ± 0.013 S/m
323.35 K | 0.0323 ± 0.013 S/m
323.55 K | 0.0324 ± 0.013 S/m
323.75 K | 0.0326 ± 0.013 S/m
324.05 K | 0.033 ± 0.013 S/m
324.25 K | 0.0332 ± 0.013 S/m
324.55 K | 0.0334 ± 0.013 S/m
324.75 K | 0.0338 ± 0.014 S/m
325.05 K | 0.0339 ± 0.014 S/m
325.35 K | 0.0344 ± 0.014 S/m
325.55 K | 0.0348 ± 0.014 S/m
325.85 K | 0.0352 ± 0.014 S/m
326.35 K | 0.036 ± 0.014 S/m
326.75 K | 0.0368 ± 0.015 S/m
327.35 K | 0.0372 ± 0.015 S/m
327.95 K | 0.0384 ± 0.015 S/m
328.55 K | 0.0392 ± 0.016 S/m
328.85 K | 0.0402 ± 0.016 S/m
329.55 K | 0.0411 ± 0.016 S/m
330.25 K | 0.0426 ± 0.017 S/m
331.05 K | 0.0442 ± 0.018 S/m
331.85 K | 0.0461 ± 0.018 S/m
332.25 K | 0.0461 ± 0.018 S/m
332.95 K | 0.0482 ± 0.019 S/m
333.35 K | 0.049 ± 0.02 S/m
333.55 K | 0.0491 ± 0.02 S/m
333.75 K | 0.0491 ± 0.02 S/m
333.85 K | 0.0493 ± 0.02 S/m
333.95 K | 0.0496 ± 0.02 S/m
334.05 K | 0.0501 ± 0.02 S/m
334.15 K | 0.0501 ± 0.02 S/m
334.25 K | 0.0504 ± 0.02 S/m
334.35 K | 0.0505 ± 0.02 S/m
334.45 K | 0.0507 ± 0.02 S/m
334.55 K | 0.0507 ± 0.02 S/m
334.65 K | 0.0509 ± 0.02 S/m
334.75 K | 0.0512 ± 0.02 S/m
334.85 K | 0.0514 ± 0.021 S/m
334.95 K | 0.0514 ± 0.021 S/m
335.05 K | 0.0514 ± 0.021 S/m
335.15 K | 0.0515 ± 0.021 S/m
335.25 K | 0.0519 ± 0.021 S/m
335.35 K | 0.052 ± 0.021 S/m
335.45 K | 0.0521 ± 0.021 S/m
335.65 K | 0.0524 ± 0.021 S/m
335.75 K | 0.0526 ± 0.021 S/m
335.95 K | 0.0528 ± 0.021 S/m
336.05 K | 0.0531 ± 0.021 S/m
336.15 K | 0.0531 ± 0.021 S/m
336.25 K | 0.0532 ± 0.021 S/m
336.35 K | 0.0536 ± 0.021 S/m
336.45 K | 0.0537 ± 0.021 S/m
336.55 K | 0.0539 ± 0.022 S/m
336.65 K | 0.0542 ± 0.022 S/m
336.75 K | 0.0544 ± 0.022 S/m
336.85 K | 0.0545 ± 0.022 S/m
336.95 K | 0.0546 ± 0.022 S/m
337.05 K | 0.0548 ± 0.022 S/m
337.15 K | 0.0549 ± 0.022 S/m
337.25 K | 0.0551 ± 0.022 S/m
337.35 K | 0.0552 ± 0.022 S/m
337.45 K | 0.0553 ± 0.022 S/m
337.55 K | 0.0556 ± 0.022 S/m
337.65 K | 0.0556 ± 0.022 S/m
337.75 K | 0.0558 ± 0.022 S/m
337.85 K | 0.0559 ± 0.022 S/m
337.95 K | 0.0563 ± 0.023 S/m
338.05 K | 0.0564 ± 0.023 S/m
338.15 K | 0.0566 ± 0.023 S/m
338.25 K | 0.0568 ± 0.023 S/m
338.35 K | 0.0569 ± 0.023 S/m
338.45 K | 0.0571 ± 0.023 S/m
338.55 K | 0.0573 ± 0.023 S/m
338.65 K | 0.0575 ± 0.023 S/m
338.75 K | 0.0577 ± 0.023 S/m
338.85 K | 0.0578 ± 0.023 S/m
338.95 K | 0.058 ± 0.023 S/m
339.05 K | 0.0583 ± 0.023 S/m
339.15 K | 0.0582 ± 0.023 S/m
339.25 K | 0.0585 ± 0.023 S/m
339.35 K | 0.0587 ± 0.023 S/m
339.45 K | 0.0588 ± 0.024 S/m
339.55 K | 0.0591 ± 0.024 S/m
339.65 K | 0.0592 ± 0.024 S/m
339.75 K | 0.0593 ± 0.024 S/m
339.85 K | 0.0596 ± 0.024 S/m
339.95 K | 0.0598 ± 0.024 S/m
340.05 K | 0.06 ± 0.024 S/m
340.15 K | 0.0602 ± 0.024 S/m
340.25 K | 0.0605 ± 0.024 S/m
340.35 K | 0.0606 ± 0.024 S/m
340.45 K | 0.0608 ± 0.024 S/m
340.55 K | 0.061 ± 0.024 S/m
340.65 K | 0.0612 ± 0.024 S/m
340.75 K | 0.0614 ± 0.025 S/m
340.85 K | 0.0614 ± 0.025 S/m
340.95 K | 0.0616 ± 0.025 S/m
341.05 K | 0.062 ± 0.025 S/m
341.15 K | 0.062 ± 0.025 S/m
341.25 K | 0.0622 ± 0.025 S/m
341.35 K | 0.0624 ± 0.025 S/m
341.45 K | 0.0625 ± 0.025 S/m
341.55 K | 0.0627 ± 0.025 S/m
341.65 K | 0.0629 ± 0.025 S/m
341.75 K | 0.063 ± 0.025 S/m
341.85 K | 0.0633 ± 0.025 S/m
341.95 K | 0.0633 ± 0.025 S/m
342.05 K | 0.0637 ± 0.025 S/m
342.15 K | 0.0639 ± 0.026 S/m
342.25 K | 0.064 ± 0.026 S/m
342.35 K | 0.0642 ± 0.026 S/m
342.45 K | 0.0643 ± 0.026 S/m
342.55 K | 0.0645 ± 0.026 S/m
342.65 K | 0.0649 ± 0.026 S/m
342.75 K | 0.0651 ± 0.026 S/m
342.85 K | 0.0654 ± 0.026 S/m
342.95 K | 0.0656 ± 0.026 S/m
343.05 K | 0.0657 ± 0.026 S/m
343.15 K | 0.0658 ± 0.026 S/m
343.25 K | 0.0662 ± 0.026 S/m
343.35 K | 0.0663 ± 0.027 S/m
343.45 K | 0.0663 ± 0.027 S/m
343.55 K | 0.0664 ± 0.027 S/m
343.65 K | 0.0667 ± 0.027 S/m
343.75 K | 0.0667 ± 0.027 S/m
343.85 K | 0.067 ± 0.027 S/m
343.95 K | 0.0674 ± 0.027 S/m
344.05 K | 0.0675 ± 0.027 S/m
344.15 K | 0.0674 ± 0.027 S/m
344.25 K | 0.0677 ± 0.027 S/m
344.35 K | 0.0678 ± 0.027 S/m
344.45 K | 0.0679 ± 0.027 S/m
344.55 K | 0.0679 ± 0.027 S/m
344.65 K | 0.068 ± 0.027 S/m
344.75 K | 0.0685 ± 0.027 S/m
344.85 K | 0.0686 ± 0.027 S/m
344.95 K | 0.0689 ± 0.028 S/m
345.05 K | 0.0688 ± 0.028 S/m
345.15 K | 0.069 ± 0.028 S/m
345.25 K | 0.069 S/m and 0.0692 S/m
345.35 K | 0.0692 ± 0.028 S/m
345.45 K | 0.0694 ± 0.028 S/m
345.55 K | 0.0697 ± 0.028 S/m
345.65 K | 0.0699 ± 0.028 S/m
345.75 K | 0.0699 ± 0.028 S/m
345.85 K | 0.07 ± 0.028 S/m
345.95 K | 0.0701 ± 0.028 S/m
346.05 K | 0.0702 ± 0.028 S/m
346.15 K | 0.0704 ± 0.028 S/m
346.25 K | 0.0707 ± 0.028 S/m
346.35 K | 0.0709 ± 0.028 S/m
346.45 K | 0.0708 ± 0.028 S/m
346.55 K | 0.0709 ± 0.028 S/m
346.65 K | 0.0712 ± 0.028 S/m
346.75 K | 0.0712 ± 0.028 S/m
346.85 K | 0.0713 ± 0.029 S/m
